Source: patent US11566260B2, “Potentiating agents for protecting plants from fungal infections” (UNIVERSITE D'ANGERS, priority 2012, dated 2023)

Tests used:
Alternaria brassicicola [1] = assay: Test A: growth of Alternaria brassicicola conidia followed by nephelometry, to find the non-fungicidal amount; type: cell-based
Experimental: (§1) Suspensions of fungal conidia (starting material being for example 10^5 conidia/mL) are cultured in liquid medium, such as, for example, 300 μL of PBD medium, on microplate wells at 25° C. with shaking at 175 rpm for 5 minutes every 10 minutes. Increasing concentrations of the tested product are added on wells, and fungal growth is measured, during at least 5 hours, preferably at least 10, 20, 30 hours. Methods for measuring fungal growth are well known from the skilled artisan. Examples of such methods include, but are not limited to, photometry, such as, for example, spectrophotometric methods; or nephelometry, such as, for example, laser nephelometry as described in Joubert et al (Biotechniques, 2010, 48:399-404). Growth inhibition is measured by comparing the Area Under Curves (AUC) of treated samples and of untreated controls. Test A is carried out in Example 1.
Alternaria brassicicola strains were cultivated at 24° C. on potato dextrose (PD) medium (Cat. No. 213200; Becton Dickinson, USA).
For inoculum preparation, conidia were collected from 8-days-old solid cultures by adding PD broth followed by gentle scraping of the agar plates. They were counted in a Thoma's chamber and the conidial suspensions were diluted to the concentration of 10^5 conidia/mL.
Growth was automatically recorded for at least 30 hours at 25° C. using a nephelometric reader (NEPHELOstar Galaxy, BMG Labtech, Germany) equipped with a 635-nm laser as radiation source. During incubation, the 96-well plates were subjected to shaking at 175 rpm for 5 minutes every 10 minutes. Measurements were done every hour with a gain value of 90 and a percentage of the maximum value of 20%. Each well was measured for 0.1 second with a laser beam of 2.5 mm.
Chelerythrin (25 μM or 50 μM, test wells) or 10 μL of DMSO (chelerythrin solvent, control wells) were added on wells, and growth curves were drawn (FIG. 1).
Camalexin (10, 20, 40 or 60 μM, test wells) or 10 μL of DMSO (chelerythrin solvent, control wells) were added on wells, and growth curves were drawn (FIG. 2).

Alternaria brassicicola [2] = assay: Test B: potentiating effect with a plant defense molecule on growth of Alternaria brassicicola; type: cell-based
Experimental: as §1, with “Test B: • 1) Determining a non-fungicidal amount of said agent, preferably according to Test A; • 2) Determining a non-fungicidal amount of a plant defense molecule, preferably according to Test A; • 3) Measuring growth of fungal conidia in a medium comprising a combination of a non-fungicidal amount of the agent, as determined in step 1, and a non-fungicidal amount of the plant defense molecule, as determined in step 2. In one embodiment, the growth is measured as follows: Suspensions” for “Suspensions”, “material:” for “material being for example”, “Non-fungicidal” for “Increasing”, “agent and of the tested plant defense molecule” for “product”, “measured” for “measured,”, “controls.” for “controls. Test A is carried out in Example 1.”
The potentiating effect of chelerythrin is measured in a suspension of conidia treated with a plant defense molecule, camalexin, which is present at a non-fungicidal amount as determined hereinabove. Said non-fungicidal amount is consistent with the amount of camalexin produced by an infected plant organ.
Alternaria brassicicola growth was measured as described hereinabove.
A non-fungicidal amount of chelerythrin (as determined in Example 1a) and/or a non-fungicidal amount of camalexin (as determined in Example 1b) or 10 μL of DMSO are added per well, and growth curves were drawn (FIG. 3).
In the Table 5 below are shown compounds (column 1) having a potentiating effect of a plant defense molecule (column 2) for the inhibition of a pathogenic fungus (column 3). The type of the potentiating agent in this particular situation is given in column 4 (homologous or heterologous). Triads were identified according to Test B.

Alternaria brassicicola [3] = assay: In vivo efficacy on cabbage leaves inoculated with Alternaria brassicicola; conditions: 25 μM chelerythrin in inoculum; intact or prewounded B. oleracea cv Bartolo leaves; 6 dpi; vs DMSO side
Experimental: Example 2 discloses a protocol for determining the in vivo efficacy of the composition of the invention, comprising a potentiating amount of chelerythrin (25 μM), as determined in Example 1.
5 μL drops of Alternaria brassicicola conidia suspension (10^5 to 10^3 conidia/mL) were inoculated on intact or prewounded (i.e wherein the synthesis of plant defense molecules such as Brassinin was naturally triggered by the aggression) leaves of B. oleracea cv Bartolo plants at stages 4-6 leaves per plant. Inocula were deposited on the left and right sides symmetrically from the central vein: inocula comprising 25 μM of chelerythrin were deposited on the right side, and inocula comprising DMSO were deposited on the left side. The plants were then maintained under saturing humidity (100% relative humidity).

[4] = system: BY4743 strain transformed with the empty pYES2-CT vector; assay: Test C: growth of S. cerevisiae control strain (empty pYES2-CT vector); type: cell-based, Saccharomyces cerevisiae; conditions: for Area under the curve: OD 600 nm
Experimental: (§2) Test C is based on the essential role of Pkc1 in fungal cells: if its essential function is inhibited, the growth of the fungal cells will be affected. Therefore, in Test C, two different strains of S. cerevisiae are cultured in the presence of the tested compound: the first one is a wild-type strain, whereas the second overexpresses the fungal Pkc1 gene. If the tested compound is an inhibitor of the fungal Pkc1 protein, the growth of the wild-type strain will be inhibited, whereas the induction of the overexpression of the heterologous fungal Pkc1 gene will restore, at least partially, the growth rate. Test C is carried out in Example 3.
(§3) Growth of this strain was monitored in an inducing medium (GS uracil-free medium supplemented with galactose) in presence of increasing concentrations of chelerythrin (0, 25, 50 or 75 μM), and was compared with the growth of a control strain (BY4743 strain transformed with the empty pYES2-CT vector). Growth was measured by spectrometry (Optic density: 600 nm). Inhibition of growth was assessed by comparison of the area under the curves.

[5] = system: S. cerevisiae strain overexpressing Alternaria brassicicola Pkc1; assay: Test C: growth of S. cerevisiae strain overexpressing Alternaria brassicicola Pkc1 (pYES-PKC); type: cell-based, Saccharomyces cerevisiae; conditions: pYES2-PKC; for Area under the curve: inducing medium, OD 600 nm
Experimental: as §2
Construction of a S. cerevisiae strain overexpressing Alternaria brassicicola Pkc1 The cDNA encoding the Pkc1 gene of Alternaria brassicicola (http://genome.jgi-psf.org/Altbr1/Altbr1.home.html; sequence ref: AB07449.1) was amplified by PCR and cloned into a pYES2-CT vector (Invitrogen, Paisley, UK). The resulting vector (pYES-PKC) was inserted in a BY4743 strain of Saccharomyces cerevisiae.
as §3

[6] = system: BY4743 strain of Saccharomyces cerevisiae; assay: Test D: growth of S. cerevisiae BY4743 in normal and high osmotic pressure conditions; type: cell-based
Experimental: Test D is based on the fact that the protein Pkc1 is implied in the CWI pathway. In a situation where the CWI pathway is impaired, growth of fungal cells is less affected by a high osmotic pressure. Consequently, in Test D, a S. cerevisiae strain is cultured in conditions of high osmotic pressure, in the presence or in absence of the tested compound. If said compound is a Pkc1 inhibitor, it will inhibit the growth of cells in normal osmotic pressure conditions, but not, or less, in high osmotic pressure conditions. Test D is carried out in Example 3.
The growth of a BY4743 strain of Saccharomyces cerevisiae on a liquid SD medium comprising increasing concentrations of chelerythrin (0, 10, 15, 20 or 25 μM) was monitored and compared to the growth of the same strain on a liquid SD medium containing 1M of sorbitol (high osmotic pressure conditions) in presence of increasing concentrations of chelerythrin.
Growth was measured by spectrometry (optic density: 600 nm) Inhibition of growth was assessed by comparison of the area under the curves.

[7] = plant defense molecule Brassinin, Alternaria brassicicola
[8] = plant defense molecule Camalexin, Alternaria brassicicola
[9] = plant defense molecule Resveratrol, Alternaria brassicicola

SMILES: c1ccc2c(-c3nccs3)c[nH]c2c1 [camalexin, reference compound]
- inhibition of Alternaria brassicicola growth (Alternaria brassicicola [1]; 10 μM camalexin): ≤ 20%
- inhibition of Alternaria brassicicola growth (Alternaria brassicicola [1]; 20 μM camalexin): ≤ 20%

SMILES: COc1ccc2c(c[n+](C)c3c4cc5c(cc4ccc23)OCO5)c1OC [Chelerythrin]
- Alternaria brassicicola growth inhibition (Alternaria brassicicola [1]; 25 μM chelerythrin, nephelometry, at least 30 hours, 25° C., vs DMSO control): does not inhibit
- non-fungicidal amount (Alternaria brassicicola [1]; Alternaria brassicicola, in vitro): 25 µM
- inhibition of Alternaria brassicicola growth by the combination (Alternaria brassicicola [2]; 25 μM chelerythrin combined with 10 μM camalexin, both non-fungicidal amounts): drastic inhibition
- Type of potentiating agent (compound having a potentiating effect of the plant defense molecule) (Alternaria brassicicola [2]; [7]): Homologous
- Type of potentiating agent (compound having a potentiating effect of the plant defense molecule) (Alternaria brassicicola [2]; [8]): Homologous
- potentiating amount (Alternaria brassicicola [2]; with non-fungicidal amount of camalexin, Alternaria brassicicola): 25 µM
- fungal infection of cabbage leafs (Alternaria brassicicola [3]): limits in vivo the fungal infection
- Area under the curve ([4]; 25 μM chelerythrin): 8.6
- Area under the curve ([4]; 50 μM chelerythrin): 3.2
- Area under the curve ([4]; 75 μM chelerythrin): 2.5
- inhibition at 25 µM ([4]; Saccharomyces cerevisiae, 25 μM chelerythrin): 43%
- inhibition at 50 µM ([4]; Saccharomyces cerevisiae, 50 μM chelerythrin): 79%
- inhibition at 75 µM ([4]; Saccharomyces cerevisiae, 75 μM chelerythrin): 84%
- inhibition at 25 µM ([5]; 25 μM chelerythrin): 15%
- Area under the curve ([5]; 25 μM chelerythrin): 10.7
- inhibition at 50 µM ([5]; 50 μM chelerythrin): 25%
- Area under the curve ([5]; 50 μM chelerythrin): 9.4
- inhibition at 75 µM ([5]; 75 μM chelerythrin): 30%
- Area under the curve ([5]; 75 μM chelerythrin): 8.8
- Area under the curve ([6]; SD + Sorbitol (1M, high osmotic pressure), 10 μM chelerythrin): 5.2
- Area under the curve ([6]; SD + Sorbitol (1M, high osmotic pressure), 15 μM chelerythrin): 5.0
- Area under the curve ([6]; SD + Sorbitol (1M, high osmotic pressure), 20 μM chelerythrin): 2.0
- Area under the curve ([6]; SD medium, 10 μM chelerythrin): 14.3
- Area under the curve ([6]; SD medium, 15 μM chelerythrin): 11.8
- Area under the curve ([6]; SD medium, 20 μM chelerythrin): 10.4
- Area under the curve ([6]; SD medium, 25 μM chelerythrin): 8.1
- inhibition at 10 µM ([6]; Saccharomyces cerevisiae, SD + Sorbitol (1M, high osmotic pressure), 10 μM chelerythrin): -3%
- inhibition at 15 µM ([6]; Saccharomyces cerevisiae, SD + Sorbitol (1M, high osmotic pressure), 15 μM chelerythrin): 1%
- inhibition at 20 µM ([6]; Saccharomyces cerevisiae, SD + Sorbitol (1M, high osmotic pressure), 20 μM chelerythrin): 0%
- inhibition at 10 µM ([6]; Saccharomyces cerevisiae, SD medium, 10 μM chelerythrin): 10%
- inhibition at 15 µM ([6]; Saccharomyces cerevisiae, SD medium, 15 μM chelerythrin): 26%
- inhibition at 20 µM ([6]; Saccharomyces cerevisiae, SD medium, 20 μM chelerythrin): 35%
- inhibition at 25 µM ([6]; Saccharomyces cerevisiae, SD medium, 25 μM chelerythrin): 49%

SMILES: CCOc1cc2c(OCC)cc3c4cc(OC)c(OC)cc4cnc3c2cc1OC [Compound 3]
- Type of potentiating agent (compound having a potentiating effect of the plant defense molecule) (Alternaria brassicicola [2]; [9]): Heterologous

SMILES: COc1cc2c(OC)cc3c4cc(OC)c(OC)cc4c(=O)n(C)c3c2cc1OC [Compound 5]
- Type of potentiating agent (compound having a potentiating effect of the plant defense molecule) (Alternaria brassicicola [2]; [7]): Homologous
- Type of potentiating agent (compound having a potentiating effect of the plant defense molecule) (Alternaria brassicicola [2]; [9]): Heterologous

SMILES: c1c2c(cc3c1OCO3)-c1cc3ccc4c(c3c[n+]1CC2)OCO4 [Coptisin]
- Type of potentiating agent (compound having a potentiating effect of the plant defense molecule) (Alternaria brassicicola [2]; [7]): Homologous
- Type of potentiating agent (compound having a potentiating effect of the plant defense molecule) (Alternaria brassicicola [2]; [8]): Homologous
